Data: patent US9790221B2, “Heteroaryl compounds as IRAK inhibitors and uses thereof” (Merck Patent GmbH, priority 2014, dated 2017)

What was measured:
IRAK4 = IRAK4 (Homo sapiens (Human), UniProt Q9NWZ3); assay: IRAK4 enzymatic assay; format: biochemical
Procedure: IRAK4 is a human purified recombinant enzyme ([…]. IRAK4 hydrolyses ATP, autophosphorylates and phosphorylates a Serine/Threonine generic peptidic substrate (STK: 61ST1BLC from CisBio International based in Bagnols/Cèze FR).
Measurement of IRAK-4 inhibition was performed in streptavidin coated 384well FlashPlate (PerkinElmer #SMP410A). His-TEV-IRAK4 (20 ng/well), ATP (2 μM, [^33P]ATP 0.25 µCi/well), STK1-biotin peptide (300 nM) and compounds in DMSO (range of concentrations from 20 µM to 1 nM) or controls (2% DMSO) were incubated for 3 hours at 30° C. in assay buffer: Hepes pH7.0 50 mM, Fatty acid-free BSA 0.1%, Dithiothreitol DTT 2 mM, MgCl2 10 mM, EGTA 0.5 mM, Tween-20 0.01%, MnCl2 5 mM.
Kinase reaction was stopped by addition of EDTA. Supernatant was discarded, plates were washed three times with 150 mM NaCl and radioactivity was then measured in a Microbeta Trilux reader.

[1] = biological target: IRAK1 (His-TEV-IRAK1 (194-712)) (Homo sapiens (Human), UniProt P51617); assay: IRAK1 enzymatic assay; format: biochemical
Procedure: IRAK1 is a human purified recombinant enzyme (His-TEV-IRAK1 (194-712)). In this assay, IRAK-1 hydrolyses ATP and autophosphorylates. Measurement of IRAK-1 inhibition was performed in streptavidin coated 384well FlashPlate (PerkinElmer #SMP410A).
His-TEV-IRAK-1 (15 ng/well), ATP (1 μM, [33P]ATP 0.25 μCi/well) and compounds in DMSO (range of concentrations from 20 µM to 1 nM) or controls (2% DMSO) were incubated for 3 hours at 30° C. in assay buffer: Hepes pH7.0 50 mM, Fatty acid-free BSA 0.1%, Dithiothreitol DTT 2 mM, MgCl2 10 mM, EGTA 0.5 mM, Triton-X-100 0.01%. Kinase reaction was stopped by addition of EDTA. Supernatant was discarded, plates were washed three times with 150 mM NaCl and radioactivity was then measured in a Microbeta Trilux reader.

Chain of IRAK1 (His-TEV-IRAK1 (194-712)) (P51617 194-712): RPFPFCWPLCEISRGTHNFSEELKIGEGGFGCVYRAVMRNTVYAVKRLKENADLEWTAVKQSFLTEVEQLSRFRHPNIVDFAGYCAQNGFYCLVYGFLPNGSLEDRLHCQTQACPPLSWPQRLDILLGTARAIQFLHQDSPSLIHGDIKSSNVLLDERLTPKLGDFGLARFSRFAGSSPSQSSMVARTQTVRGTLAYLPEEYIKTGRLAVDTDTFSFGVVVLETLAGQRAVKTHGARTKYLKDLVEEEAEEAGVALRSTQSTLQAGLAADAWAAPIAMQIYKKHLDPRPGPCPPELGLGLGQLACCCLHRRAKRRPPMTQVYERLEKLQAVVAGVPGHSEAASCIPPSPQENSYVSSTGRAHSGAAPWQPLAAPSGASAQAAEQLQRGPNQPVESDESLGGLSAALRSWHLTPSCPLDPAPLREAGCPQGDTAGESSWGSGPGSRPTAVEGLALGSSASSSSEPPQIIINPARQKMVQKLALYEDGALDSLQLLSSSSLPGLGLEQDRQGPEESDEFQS
Chain of IRAK4 (Q9NWZ3 whole entry): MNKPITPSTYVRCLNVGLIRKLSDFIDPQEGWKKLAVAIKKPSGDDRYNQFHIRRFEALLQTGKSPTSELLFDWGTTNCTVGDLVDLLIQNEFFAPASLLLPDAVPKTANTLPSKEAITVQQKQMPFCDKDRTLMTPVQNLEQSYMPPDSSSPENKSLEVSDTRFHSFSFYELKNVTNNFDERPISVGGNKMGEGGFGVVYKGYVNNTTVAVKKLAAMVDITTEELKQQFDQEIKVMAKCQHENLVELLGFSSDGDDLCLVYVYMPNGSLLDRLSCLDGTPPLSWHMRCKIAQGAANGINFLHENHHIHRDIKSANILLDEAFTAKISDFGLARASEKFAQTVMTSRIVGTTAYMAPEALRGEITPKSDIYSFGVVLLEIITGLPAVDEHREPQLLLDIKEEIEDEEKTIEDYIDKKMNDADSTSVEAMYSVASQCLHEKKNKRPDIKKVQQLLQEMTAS

Structure (SMILES) | IC50 (IRAK4) | IC50 [1]
Cn1cc(-c2cccc(-c3ncc(-c4cnn(C)c4)c(N[C@H]4CCNC4)n3)c2)cn1 [Example 121] | 100 to 1000 nM | > 5000 nM
Cn1cc(-c2cccc(-c3ncc(-c4ccn(C)n4)c(NCC4CCCC(O)C4)n3)c2)cn1 (centres unmarked) [Example 122] | 100 to 1000 nM | > 5000 nM
Cn1cc(-c2cccc(-c3ncc(-c4ccn(C)n4)c(N[C@H]4C[C@@H](N)C4)n3)c2)cn1 [Example 124] | 100 to 1000 nM | > 5000 nM
Cn1cc(-c2cccc(-c3ncc(-c4cnn(C)c4)c(N[C@@H]4CNC[C@@H](F)C4)n3)c2)cn1 [Example 130] | 100 to 1000 nM | 1000 to 5000 nM
Cn1cc(-c2cccc(-c3ncc(-c4cnn(C)c4)c(NCCCC(C)(C)O)n3)c2)cn1 [Example 139] | 100 to 1000 nM | 100 to 1000 nM
Cn1cc(-c2cccc(-c3ncc(-c4ccn(C)n4)c(NCCCC(C)(C)O)n3)c2)cn1 [Example 140] | 100 to 1000 nM | 1000 to 5000 nM
CN(CC1CC(F)(F)C1)c1nc(-c2cccc(-c3cnn(C)c3)c2)ncc1-c1ccn(C)n1 [Example 142] | 1000 to 5000 nM | > 5000 nM
Cn1cc(-c2cccc(-c3ncc(-c4ccn(C)n4)c(NCC4CCNC4)n3)c2)cn1 (centres unmarked) [Example 144] | 100 to 1000 nM | > 5000 nM
Cn1cc(-c2cccc(-c3ncc(-c4cnn(C)c4)c(NCC4CCNC4)n3)c2)cn1 (centres unmarked) [Example 145] | 100 to 1000 nM | > 5000 nM
Cn1cc(-c2cccc(-c3ncc(-c4ccn(C)n4)c(N[C@H]4CC[C@H](O)CC4)n3)c2)cn1 [Example 147] | < 100 nM | > 5000 nM
Cn1cc(-c2cccc(-c3ncc(-c4cnn(C)c4)c(N4CCNCC4)n3)c2)cn1 [Example 148] | 100 to 1000 nM | > 5000 nM
Cn1cc(-c2cccc(-c3ncc(-c4cnn(C)c4)c(NC4CCC5CNCC54)n3)c2)cn1 (centres unmarked) [Example 150] | 100 to 1000 nM | > 5000 nM
Cn1cc(-c2cccc(-c3ncc(-c4ccn(C)n4)c(NC4CCC5CNCC54)n3)c2)cn1 (centres unmarked) [Example 154] | 100 to 1000 nM | > 5000 nM
Cn1cc(-c2cccc(-c3ncc(-c4cnn(C)c4)c(NC[C@H]4CC[C@@H](O)CC4)n3)c2)cn1 [Example 155] | < 100 nM | > 5000 nM
Cn1cc(-c2cccc(-c3ncc(-c4cnn(C)c4)c(NCC4CC4)n3)c2)cn1 [Example 157] | < 100 nM | 100 to 1000 nM
Cn1cc(-c2cccc(-c3ncc(-c4cnn(C)c4)c(NCC4CCN(S(C)(=O)=O)C4)n3)c2)cn1 (centres unmarked) [Example 158] | < 100 nM | 100 to 1000 nM
Cn1cc(-c2cccc(-c3ncc(-c4cnn(C)c4)c(NC4C5CCCC4CC(NS(C)(=O)=O)C5)n3)c2)cn1 (centres unmarked) [Example 159] | < 100 nM | > 5000 nM
Cn1cc(-c2cccc(-c3ncc(-c4cnn(C)c4)c(NC4CC5(C4)CC(NS(C)(=O)=O)C5)n3)c2)cn1 (centres unmarked) [Example 160] | < 100 nM | 100 to 1000 nM
Cn1cc(-c2cccc(-c3ncc(-c4cnn(C)c4)c(NCC4CCC4)n3)c2)cn1 [Example 163] | < 100 nM | 100 to 1000 nM
Cn1cc(-c2cccc(-c3ncc(-c4cnn(C)c4)c(NC4CCC5CN(S(C)(=O)=O)CC54)n3)c2)cn1 (centres unmarked) [Example 168] | < 100 nM | > 5000 nM
Cn1cc(-c2cccc(-c3ncc(-c4cnn(C)c4)c(NCC4CN(S(C)(=O)=O)CCO4)n3)c2)cn1 (centres unmarked) [Example 172] | < 100 nM | 100 to 1000 nM
Cn1cc(-c2cccc(-c3ncc(-c4cnn(C)c4)c(NCC4[C@H]5CN(S(C)(=O)=O)C[C@@H]45)n3)c2)cn1 (some centres unmarked) [Example 173] | 100 to 1000 nM | > 5000 nM
Cn1cc(-c2cccc(-c3ncc(-c4cnn(C)c4)c(NC[C@H]4CCN(S(C)(=O)=O)C4)n3)c2)cn1 [Example 174] | < 100 nM | 100 to 1000 nM
Cn1cc(-c2cccc(-c3ncc(-c4cnn(C)c4)c(NCCC4CCN(S(C)(=O)=O)C4)n3)c2)cn1 (centres unmarked) [Example 175] | 100 to 1000 nM | 100 to 1000 nM
Cn1cc(-c2cccc(-c3ncc(-c4cnn(C)c4)c(NCCCCNS(C)(=O)=O)n3)c2)cn1 [Example 177] | < 100 nM | 100 to 1000 nM
Cn1cc(-c2cccc(-c3ncc(-c4cnn(C)c4)c(NC4CCCCN(S(C)(=O)=O)C4)n3)c2)cn1 (centres unmarked) [Example 178] | 100 to 1000 nM | 100 to 1000 nM

Structure (SMILES) | IC50 (IRAK4) | IC50 [1]
Cn1cc(-c2cccc(-c3ncc(-c4cnn(C)c4)c(NC4CC(CO)(CO)C4)n3)c2)cn1 [Example 180] | < 100 nM | 100 to 1000 nM
Cn1cc(-c2cccc(-c3ncc(-c4cnn(C)c4)c(NC4CC5CC4N(S(C)(=O)=O)C5)n3)c2)cn1 (centres unmarked) [Example 189] | > 5000 nM | > 5000 nM
Cn1cc(-c2cccc(-c3ncc(-c4cnn(C)c4)c(N4CC5CNCC5C4)n3)c2)cn1 (centres unmarked) [Example 191] | 100 to 1000 nM | > 5000 nM
Cc1nnc(-c2cnc(-c3cccc(-c4cnn(C)c4)c3)nc2NCC2CN(S(C)(=O)=O)C2)s1 [Example 192] | < 100 nM | 1000 to 5000 nM
Cn1cc(-c2cccc(-c3ncc(-c4cnn(C)c4)c(NC4CC5CCC4N5)n3)c2)cn1 (centres unmarked) [Example 193] | 100 to 1000 nM | > 5000 nM
Cn1cc(-c2cccc(-c3ncc(-c4cnn(C)c4)c(N[C@H]4C[C@H](N)C4)n3)c2)cn1 [Example 197] | 100 to 1000 nM | > 5000 nM
CC(=O)NCC1CCC(Nc2nc(-c3cccc(-c4cnn(C)c4)c3)ncc2-c2cnn(C)c2)CC1 (centres unmarked) [Example 198] | < 100 nM | 1000 to 5000 nM
Cn1cc(-c2cccc(-c3ncc(-c4cnn(C)c4)c(NCC4CCCC4N)n3)c2)cn1 (centres unmarked) [Example 200] | 100 to 1000 nM | 1000 to 5000 nM
Cn1cc(-c2cccc(-c3ncc(-c4cnn(C)c4)c(NC4CCC(CNS(C)(=O)=O)CC4)n3)c2)cn1 (centres unmarked) [Example 201] | < 100 nM | 1000 to 5000 nM
CC(=O)N[C@H]1C[C@H](Nc2nc(-c3cccc(-c4cnn(C)c4)c3)ncc2-c2cnn(C)c2)C1 [Example 202] | 100 to 1000 nM | 1000 to 5000 nM
Cn1cc(-c2cccc(-c3ncc(-c4cnn(C)c4)c(NCC4CCCC4NS(C)(=O)=O)n3)c2)cn1 (centres unmarked) [Example 203] | 100 to 1000 nM | 1000 to 5000 nM
CC(=O)NC1CCC(Nc2nc(-c3cccc(-c4cnn(C)c4)c3)ncc2-c2nnc(C)s2)CC1 (centres unmarked) [Example 205] | < 100 nM | 100 to 1000 nM
CC(=O)NC[C@H]1C[C@H](Nc2nc(-c3cccc(-c4cnn(C)c4)c3)ncc2-c2cnn(C)c2)C1 [Example 212, N-(3-{5-(1-Methyl-1H-pyrazol-4-yl)-2-[3-(1-methyl-1H-pyrazol-4-yl)-phenyl]-pyrimidin-4-ylamino}-cyclobutylmethyl)-acetamide] | 100 to 1000 nM | > 5000 nM
Cn1cc(-c2cccc(-c3ncc(-c4cnn(C)c4)c(N4CCC(O)C4)n3)c2)cn1 (centres unmarked) [Example 218] | 100 to 1000 nM | 1000 to 5000 nM
Cn1cc(-c2cccc(-c3ncc(-c4cnn(C)c4)c(N4CCCC(CO)C4)n3)c2)cn1 (centres unmarked) [Example 220] | < 100 nM | 100 to 1000 nM
CN(CCC#N)c1nc(-c2cccc(-c3cnn(C)c3)c2)ncc1-c1cnn(C)c1 [Example 222] | 100 to 1000 nM | 100 to 1000 nM
Cn1cc(-c2cccc(-c3ncc(-c4cnn(C)c4)c(NC(C)(C)C)n3)c2)cn1 [Example 223] | < 100 nM | 100 to 1000 nM
Cn1cc(-c2cccc(-c3ncc(-c4cnn(C)c4)c(NC[C@@H]4CCCC[C@H]4O)n3)c2)cn1 [Example 224] | < 100 nM | 1000 to 5000 nM
Cn1cc(-c2cccc(-c3ncc(-c4cnn(C)c4)c(N4CC(O)C4)n3)c2)cn1 [Example 226] | 100 to 1000 nM | > 5000 nM
Cn1cc(-c2cccc(-c3ncc(-c4cnn(C)c4)c(NCCC4(O)CCCC4)n3)c2)cn1 [Example 227] | < 100 nM | 100 to 1000 nM
Cn1cc(-c2cccc(-c3ncc(-c4cnn(C)c4)c(N4CCC(CCO)C4)n3)c2)cn1 (centres unmarked) [Example 228] | 1000 to 5000 nM | > 5000 nM
Cn1cc(-c2cccc(-c3ncc(-c4cnn(C)c4)c(NCC4CCNCC4F)n3)c2)cn1 (centres unmarked) [Example 229] | 100 to 1000 nM | > 5000 nM
Cn1cc(-c2cccc(-c3ncc(-c4cnn(C)c4)c(N4CCC[C@H]4CO)n3)c2)cn1 [Example 230] | 1000 to 5000 nM | > 5000 nM
Cn1cc(-c2cccc(-c3ncc(-c4cnn(C)c4)c(NCC4(F)CCNCC4)n3)c2)cn1 [Example 231] | 1000 to 5000 nM | > 5000 nM
COC(=O)[C@@H]1CCC[C@H](Nc2nc(-c3cccc(-c4cnn(C)c4)c3)ncc2-c2cnn(C)c2)C1 [Example 232] | < 100 nM | 100 to 1000 nM
Cn1cc(-c2cccc(-c3ncc(-c4cnn(C)c4)c(NCC4CCN(S(C)(=O)=O)CC4F)n3)c2)cn1 (centres unmarked) [Example 234] | < 100 nM | 1000 to 5000 nM
